Laboratory results taken from patent publication US20260272933A1, “USE OF HETEROCYCLIC COMPOUND IN TREATMENT OF INTERSTITIAL PNEUMONIA” (SUZHOU KINTOR PHARMACEUTICALS, INC., priority 2023, published 2026).
Entries after “also recorded” stand apart in the source; their conditions may differ.

Tests used:
GLi1 = experiment: Western blot: degradation of TGF-β-induced GLi1 protein in A549 cells; type: cell-based, Human; conditions: 24-hour treatment, FIG. 43
Method: (§1) Human lung carcinoma cells (A549 cell line) were purchased from Shanghai Cell Bank of Chinese Academy of Sciences.
(§2) The cells were cultured in RPMI (Roswell Park Memorial Institute)-1640 medium supplemented with 10% FBS (Fetal Bovine Serum) and 1% penicillin-streptomycin. The cell culture conditions were 5% CO2 and […] Upon reaching approximately 80% confluence, the cells were subcultured at a 1:3 ratio.
(§3) A549 cells in the exponential growth phase were digested and plated into 6-well plates at 1×10^6 cells per well. After one day of growth, TGF-β (transforming growth factor-β) and different concentrations of compound B-1-1 were added to culture the cells. Protein was extracted 24 hours after drug treatment.
(§4) After removing the culture medium from the 6-well plates, the cells were washed once with PBS (phosphate-buffered saline) and then trypsinized. The cells were collected in 1.5 mL microcentrifuge tubes by centrifugation. […]
(§5) The protein concentration was determined using a BCA Protein Assay Kit. […] After thoroughly mixing, the plate was incubated at 60° C. for 10 min, and the absorbance was measured at 562 nm. Record the readings and plot a standard curve based on the standard concentration gradient. The protein concentration of the samples was calculated by substituting the sample absorbance values into the standard curve. […]

GLi2 = experiment: Western blot: degradation of TGF-β-induced GLi2 protein in A549 cells; type: cell-based, Human; conditions: 24-hour treatment, FIG. 43
Method: as §1, §2, §3, §4, §5

α-SMA = experiment: Western blot: degradation of TGF-β-induced α-SMA protein in A549 cells; type: cell-based, Human; conditions: 24-hour treatment, FIG. 43
Method: as §1, §2, §3, §4, §5

[1] = system: Bleomycin-induced unilateral pulmonary fibrosis model in SD rats; experiment: Bleomycin-induced unilateral pulmonary fibrosis model, HE staining injury and inflammation score of terminal bronchioles and small pulmonary arteries; type: in vivo; conditions: for Injury Score of Terminal Bronchioles and Accompanying Small Pulmonary Arteries, At Margin Lesion / Injury Score of Terminal Bronchioles and Accompanying Small Pulmonary Arteries, Within Lesion: p.o., 28 days from Day 8, Mean ± SEM, p < 0.001 vs. Model group; for Injury Score of Terminal Bronchioles and Accompanying Small Pulmonary Arteries, At Margin Lesion: model group 5.44 ± 0.12; for Injury Score of Terminal Bronchioles and Accompanying Small Pulmonary Arteries, Within Lesion: model group 9.44 ± 0.22
Source text: (§6) 55 SD rats were purchased from Zhejiang Charles River Laboratory Animal Technology Co., Ltd. and housed in the SPF-grade barrier system of KCl Biotechnology (Suzhou) Co., Ltd. The animal use certification number was SYXK (Su) 2017-0041, the temperature, humidity and light control system follows international standards.
(§7) Anesthesia: 1-2.5% isoflurane was used for respiratory anesthesia to maintain deep anesthesia of the animals.
(§8) After the rats were under surgical anesthesia, the experimental model was constructed according to the guidelines for establishing the unilateral pulmonary fibrosis model in KCl. The skin was shaved, locally disinfected, and then a layered incision was made to expose and preserve the trachea. Bleomycin (dose: 3 mg/kg) was administered via intratracheal instillation to induce left lung fibrosis. After confirming no bleeding, the incision was closed layer-by-layer using 2-0 silk surgical sutures. After the surgery, the animals were placed on a 37° C. electric heating pad until fully recovered. Normal feeding and drinking were confirmed before returning the animals to standard housing. Starting from the day of modeling, meloxicam (1 mg/kg) was administered subcutaneously once daily for three consecutive days for postoperative analgesia.
(§9) Prior to modeling, animals were randomly divided into five groups based on body weight, as follows: Sham model group (normal group) (n=10), model group (n=10), Nintedanib 100 mg/kg, qd group (n=10), Compound B-1-1 20 mg/kg, bid group (n=10), Compound B-1-1 40 mg/kg, bid group (n=10). The administration began on the 8th day after modeling. • Nintedanib: administered orally, once daily for 28 consecutive days; • Compound B-1-1: administered orally, twice daily for 28 consecutive days.
(§10) After euthanasia, animals were perfused systemically with pre-cooled PBS at 4° C. The lungs were collected, and the left lung lobes were perfused with formalin. Histopathological examinations were performed using HE staining and Masson Trichrome staining. HE staining was used to evaluate the extent of bronchial and small pulmonary artery injury and inflammation, while Masson Trichrome staining assessed the degree of pulmonary fibrosis.
(§11) The entire left lung was dehydrated and embedded in paraffin. Paraffin sections of the entire left lung were prepared at a thickness of 3 μm. HE-stained sections were used for pathological analysis and scoring of injury and inflammatory changes in terminal bronchioles and accompanying small pulmonary arteries within and surrounding the lesion (Tables 4-2 and 4-3). Masson Trichrome staining was performed on the left lung paraffin sections, and the stained sections were scanned using the Nano Zoomer Digital Pathology scanner (S210) to obtain whole-slide images. Ten areas of 1 mm^2 each were randomly selected within the lesion area, and semi-quantitative scoring was conducted under a double-blind condition according to the Ashcroft scoring system (Table 4-4).
(§12) Statistical analysis was performed using Prism 6.0 software. Data are expressed as mean±SEM (standard error). One-way ANOVA was used for the analysis, and Tukey's method was selected for the comparison of differences between groups; when comparing between two groups, a T-test was used for two-tailed detection; when p<0.05, there was a significant difference between the two groups. In cases where outliers were suspected due to large within-group variability, the Identify Outliers function in GraphPad Prism 6.0 was used to detect and exclude outlier values. For data analysis purposes, all relevant data from any animal excluded from the efficacy evaluation were also omitted from statistical analysis.

[2] = system: Bleomycin-induced unilateral pulmonary fibrosis model in SD rats; experiment: Bleomycin-induced unilateral pulmonary fibrosis model, Masson Trichrome staining, Ashcroft fibrosis score of left lung; type: in vivo; conditions: for Fibrosis Score (Ashcroft), left lung: p.o., 28 days from Day 8, model group 3.79 ± 0.08, p < 0.001 vs. Model group
Source text: as §6, §7, §8, §9, §10, §11, §12

[3] = Body weight and clinical observations during the rat pulmonary fibrosis study; type: in vivo, SD rats; conditions: Group 5, 40 mg/kg, after administration, FIGS. 44 and 45
Source text: as §6
as §8, with “analgesia. […]” for “analgesia.”

[4] = both doses, 20 mg/kg and 40 mg/kg, twice daily from Day 8, p<0.001
[5] = 100 mg/kg, once daily from Day 8, p<0.001

SMILES | degradation of TGF-β-induced GLi1 protein (Western blot) (GLi1) | degradation of TGF-β-induced GLi2 protein (Western blot) (GLi2) | degradation of TGF-β-induced α-SMA protein (Western blot) (α-SMA) | Injury Score of Terminal Bronchioles and Accompanying Small Pulmonary Arteries, At Margin Lesion ([1]; 20 mg/kg, b.i.d.) | Injury Score of Terminal Bronchioles and Accompanying Small Pulmonary Arteries, Within Lesion ([1]; 20 mg/kg, b.i.d.) | Injury Score of Terminal Bronchioles and Accompanying Small Pulmonary Arteries, At Margin Lesion ([1]; 40 mg/kg, b.i.d.) | Injury Score of Terminal Bronchioles and Accompanying Small Pulmonary Arteries, Within Lesion ([1]; 40 mg/kg, b.i.d.) | inflammatory infiltration and pathological injury in terminal bronchioles and small pulmonary arteries within and at the margins of fibrotic lesions, compared to model group (in words) [1, 4] | Fibrosis Score (Ashcroft), left lung ([2]; 20 mg/kg, b.i.d.) | effect in inhibiting the progression of pulmonary fibrosis lesions compared with positive drug nintedanib ([2]; 40 mg/kg, BID, versus nintedanib 100 mg/kg, QD) | Fibrosis Score (Ashcroft), left lung ([2]; 40 mg/kg, b.i.d.) | pulmonary fibrosis scores / progression compared to the model group (in words) [2, 4] | body weight gain compared with the model group [3] | inflammatory cell infiltration and injury in terminal bronchioles and small pulmonary arteries within and surrounding fibrotic lesions, compared to model group (in words) [1, 5] | Injury Score of Terminal Bronchioles and Accompanying Small Pulmonary Arteries, At Margin Lesion ([1]; 100 mg/kg, q.d.) | Injury Score of Terminal Bronchioles and Accompanying Small Pulmonary Arteries, Within Lesion ([1]; 100 mg/kg, q.d.) | pulmonary fibrosis compared to the model group (in words) [2, 5] | Fibrosis Score (Ashcroft), left lung ([2]; 100 mg/kg, q.d.)
Cc1cnc(-c2cc(N3CCc4nc(N5CCC(O)CC5)ncc4[C@H]3C)ncc2Cl)c(C)c1 [Compound B-1-1] | effectively degraded | effectively degraded | effectively degraded | 3.50 ± 0.43 | 6.96 ± 0.46 | 3.14 ± 0.35 | 6.20 ± 0.47 | significantly decreased; also recorded: significantly improved | 2.93 ± 0.20 | same excellent effect | 2.62 ± 0.18 | significantly reduced; also recorded: significantly inhibit | slower rate of weight gain |  |  |  |  | 
COC(=O)c1ccc2c(c1)NC(=O)/C2=C(\Nc1ccc(N(C)C(=O)CN2CCN(C)CC2)cc1)c1ccccc1 [Nintedanib, nintedanib, reference compound] |  |  |  |  |  |  |  |  |  |  |  |  |  | significantly reduced; also recorded: amelioration | 2.72 ± 0.17 | 6.24 ± 0.21 | significantly ameliorated; also recorded: significantly improved | 2.57 ± 0.09
